Experiment [1] deals with T1, NS3 (Hepatitis C virus, UniProt A3EZJ3). Briefly: Inhibitory concentration against HCV NS3 protease. The arrangement: species or system Hepacivirus hominis.
The target of experiment [2] is T1, NS3. The experiment in a line: Inhibitory concentration against HCV NS3 protease was determined. Also on record: species or system Hepacivirus hominis.

Peptide text beside a SMILES is read from it. * marks the point of attachment. X1 = C=CC[C@H](N*)B1OC2CC3CC(C3(C)C)[C@@]2(C)O1

T1 sequence (A3EZJ3 whole entry): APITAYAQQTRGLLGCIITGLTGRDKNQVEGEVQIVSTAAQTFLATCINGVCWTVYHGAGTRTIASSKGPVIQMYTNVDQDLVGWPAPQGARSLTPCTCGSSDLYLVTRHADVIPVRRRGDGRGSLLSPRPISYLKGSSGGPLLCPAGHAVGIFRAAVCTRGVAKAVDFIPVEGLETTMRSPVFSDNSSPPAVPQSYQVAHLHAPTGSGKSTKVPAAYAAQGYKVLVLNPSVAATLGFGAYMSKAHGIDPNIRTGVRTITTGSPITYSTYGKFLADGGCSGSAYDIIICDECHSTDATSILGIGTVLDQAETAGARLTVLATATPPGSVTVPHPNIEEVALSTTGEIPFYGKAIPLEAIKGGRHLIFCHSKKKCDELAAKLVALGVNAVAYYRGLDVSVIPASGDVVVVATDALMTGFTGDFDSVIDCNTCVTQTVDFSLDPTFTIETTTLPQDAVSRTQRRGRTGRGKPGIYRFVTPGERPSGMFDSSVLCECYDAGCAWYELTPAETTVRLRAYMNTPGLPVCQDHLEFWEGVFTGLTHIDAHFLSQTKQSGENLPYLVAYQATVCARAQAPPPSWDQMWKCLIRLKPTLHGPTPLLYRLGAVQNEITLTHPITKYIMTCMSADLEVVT

In turn, `C=CC[C@H](NC(=O)[C@@H]1C[C@@H](CCCc2ccc3ccccc3c2)c2c(Cl)nc(NCc3ccccc3)c(=O)n21)B1OC2CC3CC(C3(C)C)[C@@]2(C)O1` (stereo not given in full) yielded an IC50 in experiment [1] of 240 nM. Same read-out and setting: to `C=CC[C@H](NC(=O)[C@@H]1C[C@H](CCCc2ccccc2)c2c(Cl)nc(NCc3cccc(C(F)(F)F)c3)c(=O)n21)B1OC2CC3CC(C3(C)C)[C@@]2(C)O1` (stereo not given in full) belongs 2000 nM; to `C=CC[C@H](NC(=O)[C@@H]1C[C@H](CCCc2ccc3ccccc3c2)c2c(Cl)nc(NCc3cccc(C(F)(F)F)c3)c(=O)n21)B1OC2CC3CC(C3(C)C)[C@@]2(C)O1` (stereo not given in full), 510 nM; to `C=CC[C@H](NC(=O)[C@@H]1C[C@@H](CCCc2cccc3ccccc23)c2c(Cl)nc(NCc3ccc(O)c(O)c3)c(=O)n21)B1OC2CC3CC(C3(C)C)[C@@]2(C)O1` (stereo not given in full), 110 nM. As for `C=CC[C@H](NC(=O)[C@@H]1C[C@@H](CCCc2ccc3ccccc3c2)c2c(Cl)nc(NCc3ccccn3)c(=O)n21)B1OC2CC3CC(C3(C)C)[C@@]2(C)O1` (stereo not given in full), in experiment [1], the IC50 is 90 nM. As to `C=CC[C@H](NC(=O)[C@@H]1C[C@@H](Cc2ccccc2)c2c(Cl)nc(NCc3cccc(C(F)(F)F)c3)c(=O)n21)B1OC2CC3CC(C3(C)C)[C@@]2(C)O1` (stereo not given in full), half-maximal inhibition in experiment [1] (IC50) required 260 nM. `C=CC[C@H](NC(=O)[C@@H]1CCCN1C(=O)[C@@H](NC(=O)[C@@H](NC(=O)[C@H](CCC(=O)O)NC(=O)[C@H](CC(=O)O)NC(C)=O)C(C)C)C(C)C)B1OC2CC3CC(C3(C)C)[C@@]2(C)O1` (stereo not given in full) (Ac-DEVVP-X1): the affinity in experiment [2] corresponds to a Ki of 4 nM. As for `C=CC[C@H](NC(=O)[C@@H]1C[C@@H](CCCc2ccc3ccccc3c2)c2c(Cl)nc(NCc3cccc(C(F)(F)F)c3)c(=O)n21)B1OC2CC3CC(C3(C)C)[C@@]2(C)O1` (stereo not given in full), the IC50 in experiment [1] worked out at 20 nM. Still for that read-out and setting: to `C=CC[C@H](NC(=O)[C@@H]1C[C@@H](Cc2ccc(OC)cc2)c2c(Cl)nc(NCc3cccc(C(F)(F)F)c3)c(=O)n21)B1OC2CC3CC(C3(C)C)[C@@]2(C)O1` (stereo not given in full) belongs 50 nM.

In the case of `C=CC[C@H](NC(=O)[C@@H]1C[C@@H](CCCc2ccc3ccccc3c2)c2c(Cl)nc(NCC3CCCCC3)c(=O)n21)B1OC2CC3CC(C3(C)C)[C@@]2(C)O1` (stereo not given in full), in experiment [1], the IC50 stood at 200 nM.

`C=CC[C@H](NC(=O)[C@@H]1C[C@@H](CCCc2ccc3ccccc3c2)c2c(Cl)nc(NC)c(=O)n21)B1OC2CC3CC(C3(C)C)[C@@]2(C)O1` (stereo not given in full) had an IC50 in experiment [1] of 320 nM. In the case of `C=CC[C@H](NC(=O)[C@@H]1C[C@@H](Cc2cccc(OC)c2)c2c(Cl)nc(NCc3cccc(C(F)(F)F)c3)c(=O)n21)B1OC2CC3CC(C3(C)C)[C@@]2(C)O1` (stereo not given in full), in experiment [1], the IC50 was determined as 260 nM. On the same count and under the same terms, to `C=CC[C@H](NC(=O)[C@@H]1C[C@@H](CCCc2ccc3ccccc3c2)c2c(Cl)nc(NCc3cccc(OC)c3)c(=O)n21)B1OC2CC3CC(C3(C)C)[C@@]2(C)O1` (stereo not given in full) belongs 60 nM; to `C=CC[C@H](NC(=O)[C@@H]1C[C@@H](Cc2ccc(-c3ccccc3)cc2)c2c(Cl)nc(NCc3cccc(C(F)(F)F)c3)c(=O)n21)B1OC2CC3CC(C3(C)C)[C@@]2(C)O1` (stereo not given in full), 60 nM. In experiment [1], `C=CC[C@H](NC(=O)[C@@H]1CCc2c(Cl)nc(NCc3cccc(C(F)(F)F)c3)c(=O)n21)B1OC2CC3CC(C3(C)C)[C@@]2(C)O1` (stereo not given in full) showed a half-inhibitory concentration (IC50) of 4600 nM. In the case of `C=CC[C@H](NC(=O)[C@@H]1C[C@@H](CCCc2cccc3ccccc23)c2c(Cl)nc(NCc3cccc(F)c3)c(=O)n21)B1OC2CC3CC(C3(C)C)[C@@]2(C)O1` (stereo not given in full), half-maximal inhibition in experiment [1] (IC50) was put at 60 nM. On to `C=CC[C@H](NC(=O)[C@@H]1C[C@@H](CCCc2ccc3ccccc3c2)c2c(Cl)nc(NCCCC)c(=O)n21)B1OC2CC3CC(C3(C)C)[C@@]2(C)O1` (stereo not given in full), for which, in experiment [1], inhibition was half-maximal at 160 nM (IC50). Same read-out and setting: to `C=CC[C@H](NC(=O)[C@@H]1C[C@@H](CCCc2cccc3ccccc23)c2c(Cl)nc(NCCC)c(=O)n21)B1OC2CC3CC(C3(C)C)[C@@]2(C)O1` (stereo not given in full) belongs 180 nM; to `C=CC[C@H](NC(=O)[C@@H]1C[C@@H](Cc2cccc(C)c2)c2c(Cl)nc(NCc3cccc(C(F)(F)F)c3)c(=O)n21)B1OC2CC3CC(C3(C)C)[C@@]2(C)O1` (stereo not given in full), 400 nM; to `C=CC[C@H](NC(=O)[C@@H]1C[C@@H](CCCc2cccc3ccccc23)c2c(Cl)nc(NCC(C)C)c(=O)n21)B1OC2CC3CC(C3(C)C)[C@@]2(C)O1` (stereo not given in full), 170 nM. In experiment [1], `C=CC[C@H](NC(=O)[C@@H]1C[C@@H](CCCc2ccc3ccccc3c2)c2c(Cl)nc(N)c(=O)n21)B1OC2CC3CC(C3(C)C)[C@@]2(C)O1` (stereo not given in full) registered an IC50 of 190 nM. Still for that read-out and setting: to `C=CC[C@H](NC(=O)[C@@H]1C[C@@H](CCCc2ccccc2)c2c(Cl)nc(NCc3cccc(C(F)(F)F)c3)c(=O)n21)B1OC2CC3CC(C3(C)C)[C@@]2(C)O1` (stereo not given in full) belongs 60 nM. Consider `CC[C@H](NC(=O)[C@@H]1C[C@@H](CCCc2ccc3ccccc3c2)c2c(Cl)nc(NCc3cccc(C(F)(F)F)c3)c(=O)n21)B1OC2CC3CC(C3(C)C)[C@@]2(C)O1` (stereo not given in full), for which it took 20 nM to reach half-maximal inhibition in experiment [1] (IC50). In the case of `C=CC[C@H](NC(=O)[C@@H]1C[C@@H](CCCc2cccc3ccccc23)c2c(Cl)nc(NCC)c(=O)n21)B1OC2CC3CC(C3(C)C)[C@@]2(C)O1` (stereo not given in full), the IC50 in experiment [1] turned out to be 230 nM. Consider `C=CC[C@H](NC(=O)[C@@H]1C[C@@H](Cc2ccc(C)cc2)c2c(Cl)nc(NCc3cccc(C(F)(F)F)c3)c(=O)n21)B1OC2CC3CC(C3(C)C)[C@@]2(C)O1` (stereo not given in full), for which, in experiment [1], the IC50 was 60 nM.

The values above are taken from ChEMBL document CHEMBL1136658, “Design and synthesis of potent, non-peptide inhibitors of HCV NS3 protease” (Bioorg Med Chem Lett, 2003).
